The results in this text go back to ChEMBL document CHEMBL4673219, “Novel 5,6-disubstituted pyrrolo[2,3-d]pyrimidine derivatives as broad spectrum antiproliferative agents: Synthesis, cell based assays, kinase profile and molecular docking study” (Bioorg Med Chem, 2018).

Molecules are shown by their SMILES.

Series [1] relates to OVCAR-5. Put plainly: Growth inhibition of human OVCAR-5 cells assessed as growth percentage at 100 uM incubated for 48 hrs by sulforhodamine B assay relative to control. Format: functional. As to conditions: read-out: Activity. A general note: Sulforhodamine B stains cellular protein and so reports cell mass.
Series [2] has as its system ACHN. Put plainly: Growth inhibition of human ACHN cells assessed as growth percentage at 0.01 uM incubated for 48 hrs by sulforhodamine B assay relative to control. Format: functional. As to conditions: read-out: Activity.
Series [3] has as its system SK-MEL-28. Kind of series: Growth inhibition of human SK-MEL-28 cells assessed as growth percentage at 0.1 uM incubated for 48 hrs by sulforhodamine B assay relative to control. The class given is functional. As to conditions: read-out: Activity.
The subject of series [4] is ACHN. Put plainly: Growth inhibition of human ACHN cells assessed as growth percentage at 1 uM incubated for 48 hrs by sulforhodamine B assay relative to control. The class given is functional. As to conditions: read-out: Activity.
Series [5] relates to OVCAR-5. Kind of series: Growth inhibition of human OVCAR-5 cells assessed as growth percentage at 10 uM incubated for 48 hrs by sulforhodamine B assay relative to control. The class given is functional. The note with it: read-out: Activity.
Series [6] deals with SK-MEL-28. Kind of series: Growth inhibition of human SK-MEL-28 cells assessed as growth percentage at 0.01 uM incubated for 48 hrs by sulforhodamine B assay relative to control. The class given is functional. The note with it: read-out: Activity.
Series [7] concerns SK-MEL-2. Put plainly: Growth inhibition of human SK-MEL-2 cells assessed as growth percentage at 0.01 uM incubated for 48 hrs by sulforhodamine B assay relative to control. As to conditions: read-out: Activity. The class given is functional.
Series [8] has as its system ACHN. Put plainly: Growth inhibition of human ACHN cells assessed as growth percentage at 100 uM incubated for 48 hrs by sulforhodamine B assay relative to control. The class given is functional. As to conditions: read-out: Activity.
The subject of series [9] is ACHN. Put plainly: Growth inhibition of human ACHN cells incubated for 48 hrs by sulforhodamine B assay. Format: functional.
Series [10] has as its system ACHN. Put plainly: Growth inhibition of human ACHN cells assessed as growth percentage at 0.1 uM incubated for 48 hrs by sulforhodamine B assay relative to control. The class given is functional. As to conditions: read-out: Activity.
The test system of series [11] is SK-MEL-28. Kind of series: Growth inhibition of human SK-MEL-28 cells assessed as growth percentage at 1 uM incubated for 48 hrs by sulforhodamine B assay relative to control. Format: functional. The note with it: read-out: Activity.
Series [12] relates to SF-539. Kind of series: Growth inhibition of human SF-539 cells assessed as growth percentage at 0.01 uM incubated for 48 hrs by sulforhodamine B assay relative to control. Format: functional. The note with it: read-out: Activity.
For series [13], the system named is OVCAR-5. Put plainly: Growth inhibition of human OVCAR-5 cells assessed as growth percentage at 1 uM incubated for 48 hrs by sulforhodamine B assay relative to control. Format: functional. As to conditions: read-out: Activity.
The subject of series [14] is SK-MEL-2. Kind of series: Growth inhibition of human SK-MEL-2 cells assessed as growth percentage at 1 uM incubated for 48 hrs by sulforhodamine B assay relative to control. Format: functional. As to conditions: read-out: Activity.
Series [15] has as its system OVCAR-5. Kind of series: Growth inhibition of human OVCAR-5 cells assessed as growth percentage at 0.01 uM incubated for 48 hrs by sulforhodamine B assay relative to control. Format: functional. The note with it: read-out: Activity.
Series [16] concerns SF-539. Put plainly: Growth inhibition of human SF-539 cells assessed as growth percentage at 0.1 uM incubated for 48 hrs by sulforhodamine B assay relative to control. The class given is functional. As to conditions: read-out: Activity.
The test system of series [17] is SF-539. Put plainly: Growth inhibition of human SF-539 cells assessed as growth percentage at 1 uM incubated for 48 hrs by sulforhodamine B assay relative to control. Format: functional. As to conditions: read-out: Activity.
Series [18] deals with HL-60(TB). Put plainly: Growth inhibition of human HL-60(TB) cells incubated for 48 hrs by sulforhodamine B assay. The class given is functional.
Series [19] concerns HL-60(TB). Kind of series: Growth inhibition of human HL-60(TB) cells assessed as growth percentage at 1 uM incubated for 48 hrs by sulforhodamine B assay relative to control. The class given is functional. As to conditions: read-out: Activity.
Another series deals with A498. Kind of series: Growth inhibition of human A498 cells incubated for 48 hrs by sulforhodamine B assay. Format: functional.
Series [20] is described as follows: Cmax in Sprague-Dawley rat at 10 mg/kg, po measured up to 24 hrs by LC-MS/MS analysis. Format: ADME, organism-based. More on the design: route oral, dose 10 mg/kg, time <=24. The note with it: in vivo.
Series [21] deals with Macrophage colony-stimulating factor 1 receptor (Homo sapiens) (UniProt P07333). Kind of series: Inhibition of human FMS at 10 uM using myelin basic protein as substrate incubated for 40 mins in presence of [gamma33P]ATP by scintillation counting method relative to control.
Series [22] relates to HL-60(TB). Put plainly: Growth inhibition of human HL-60(TB) cells assessed as growth percentage at 0.1 uM incubated for 48 hrs by sulforhodamine B assay relative to control. The note with it: read-out: Activity. The class given is functional.
The subject of series [23] is HL-60(TB). Put plainly: Growth inhibition of human HL-60(TB) cells assessed as growth percentage at 0.01 uM incubated for 48 hrs by sulforhodamine B assay relative to control. The class given is functional. The note with it: read-out: Activity.
A short description of series [24]: AUClast in Sprague-Dawley rat at 10 mg/kg, iv measured up to 24 hrs by LC-MS/MS analysis. The class given is ADME, organism-based. More on the design: route intravenous, dose 10 mg/kg, time <=24. As to conditions: in vivo.
Series [25] is described as follows: Tmax in Sprague-Dawley rat at 10 mg/kg, po measured up to 24 hrs by LC-MS/MS analysis. The class given is ADME, organism-based. The note with it: in vivo.
Series [26] is described as follows: Clearance in Sprague-Dawley rat at 10 mg/kg, iv measured up to 24 hrs by LC-MS/MS analysis. The class given is ADME, organism-based. The note with it: in vivo.
Series [27] has as its target Tyrosine-protein kinase Yes (Homo sapiens) (UniProt P07947). Kind of series: Inhibition of human YES1 at 10 uM using myelin basic protein as substrate incubated for 40 mins in presence of [gamma33P]ATP by scintillation counting method relative to control.
The nature of series [28]: AUClast in Sprague-Dawley rat at 10 mg/kg, po measured up to 24 hrs by LC-MS/MS analysis. The class given is ADME, organism-based. More on the design: route oral, dose 10 mg/kg, time <=24. As to conditions: in vivo.
Series [29] is described as follows: AUC (0 to infinity) in Sprague-Dawley rat at 10 mg/kg, po measured up to 24 hrs by LC-MS/MS analysis. Format: ADME, organism-based. Also noted: route oral, dose 10 mg/kg, time <=24. The note with it: in vivo.
Series [30] is described as follows: Oral bioavailability in Sprague-Dawley rat at 10 mg/kg measured up to 24 hrs by LC-MS/MS analysis. Format: ADME, organism-based. The note with it: in vivo.
Series [31] deals with Insulin-like growth factor 1 receptor (Homo sapiens) (UniProt P08069). Put plainly: Inhibition of human IGF1R at 10 uM using myelin basic protein as substrate incubated for 40 mins in presence of [gamma33P]ATP by scintillation counting method relative to control.
Series [32] deals with Tyrosine-protein kinase Lyn (Homo sapiens) (UniProt P07948). Put plainly: Inhibition of human LYN at 10 uM using myelin basic protein as substrate incubated for 40 mins in presence of [gamma33P]ATP by scintillation counting method relative to control.

The term GI50 denotes the concentration that inhibits growth by half. The TGI is the concentration at which net growth stops. Lower therefore signals more potent growth arrest. One may read the Cmax as the maximum level reached in the sampled fluid or tissue. One may read the inhibition as how much of the control response was suppressed. In general, AUC(0-t) refers to the area under the concentration-time curve up to a stated or last time point. The low end stands for low exposure, the high end for high exposure. In general, Tmax refers to the time at which the peak concentration occurs. As usually defined, the clearance is a measure of how efficiently the substance is removed, as volume per time. The AUC(0-inf) is total exposure, with the tail of the curve extrapolated. A word on the bioavailability: it is dose-corrected exposure relative to a reference, in per cent.

Chain of Insulin-like growth factor 1 receptor (Homo sapiens) (P08069 31-736 limits assumed): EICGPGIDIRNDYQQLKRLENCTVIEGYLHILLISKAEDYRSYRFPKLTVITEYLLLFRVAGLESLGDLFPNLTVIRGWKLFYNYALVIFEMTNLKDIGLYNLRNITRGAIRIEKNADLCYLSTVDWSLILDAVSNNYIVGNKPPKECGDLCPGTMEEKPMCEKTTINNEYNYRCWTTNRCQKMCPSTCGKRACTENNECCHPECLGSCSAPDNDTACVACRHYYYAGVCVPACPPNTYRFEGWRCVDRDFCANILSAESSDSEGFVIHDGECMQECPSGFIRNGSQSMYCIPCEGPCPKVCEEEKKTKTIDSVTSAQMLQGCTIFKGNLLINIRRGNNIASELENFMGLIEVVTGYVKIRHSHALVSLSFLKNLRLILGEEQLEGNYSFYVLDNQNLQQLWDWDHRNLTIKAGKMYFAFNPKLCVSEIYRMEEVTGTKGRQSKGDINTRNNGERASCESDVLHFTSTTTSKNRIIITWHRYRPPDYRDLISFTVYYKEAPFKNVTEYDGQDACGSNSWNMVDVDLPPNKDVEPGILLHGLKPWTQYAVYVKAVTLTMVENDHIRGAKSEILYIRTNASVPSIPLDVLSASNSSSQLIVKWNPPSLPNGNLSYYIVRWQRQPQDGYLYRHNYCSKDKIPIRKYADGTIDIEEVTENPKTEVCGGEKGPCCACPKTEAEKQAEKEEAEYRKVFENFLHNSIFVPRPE
Chain of Insulin-like growth factor 1 receptor (Homo sapiens) (P08069 741-1367 limits assumed): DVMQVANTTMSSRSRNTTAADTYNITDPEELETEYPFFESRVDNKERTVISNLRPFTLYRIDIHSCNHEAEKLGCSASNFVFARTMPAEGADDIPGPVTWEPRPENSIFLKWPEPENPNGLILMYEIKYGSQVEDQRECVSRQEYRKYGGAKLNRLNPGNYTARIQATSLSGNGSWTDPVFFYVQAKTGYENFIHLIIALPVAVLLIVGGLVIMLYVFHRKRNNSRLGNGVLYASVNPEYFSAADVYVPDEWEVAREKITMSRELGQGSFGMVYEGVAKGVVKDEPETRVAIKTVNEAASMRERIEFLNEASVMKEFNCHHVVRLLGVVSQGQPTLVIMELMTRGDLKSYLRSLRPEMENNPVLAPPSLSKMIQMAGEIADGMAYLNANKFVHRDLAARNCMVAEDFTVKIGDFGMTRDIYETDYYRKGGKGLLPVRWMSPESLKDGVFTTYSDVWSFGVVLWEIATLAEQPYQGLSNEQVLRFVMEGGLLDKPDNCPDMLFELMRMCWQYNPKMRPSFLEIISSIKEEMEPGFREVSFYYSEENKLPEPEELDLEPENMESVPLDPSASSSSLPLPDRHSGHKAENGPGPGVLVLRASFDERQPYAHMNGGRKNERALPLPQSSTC
Chain of Tyrosine-protein kinase Yes (Homo sapiens) (P07947 2-543 limits assumed): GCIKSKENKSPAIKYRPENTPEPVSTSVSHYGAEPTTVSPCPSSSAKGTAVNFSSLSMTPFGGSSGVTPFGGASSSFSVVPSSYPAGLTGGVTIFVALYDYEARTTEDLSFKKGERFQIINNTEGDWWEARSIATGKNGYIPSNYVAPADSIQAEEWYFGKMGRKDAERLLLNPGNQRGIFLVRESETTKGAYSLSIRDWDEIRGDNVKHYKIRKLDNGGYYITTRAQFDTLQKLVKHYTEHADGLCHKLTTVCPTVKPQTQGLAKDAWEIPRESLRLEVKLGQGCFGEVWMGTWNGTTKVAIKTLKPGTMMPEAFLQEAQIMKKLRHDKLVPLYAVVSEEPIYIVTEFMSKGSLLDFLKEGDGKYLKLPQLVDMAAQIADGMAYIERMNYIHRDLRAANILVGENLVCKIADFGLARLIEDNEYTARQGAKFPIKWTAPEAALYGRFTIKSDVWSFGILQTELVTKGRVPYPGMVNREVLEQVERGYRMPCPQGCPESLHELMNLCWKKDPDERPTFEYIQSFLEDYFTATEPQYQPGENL
Chain of Macrophage colony-stimulating factor 1 receptor (Homo sapiens) (P07333 whole entry): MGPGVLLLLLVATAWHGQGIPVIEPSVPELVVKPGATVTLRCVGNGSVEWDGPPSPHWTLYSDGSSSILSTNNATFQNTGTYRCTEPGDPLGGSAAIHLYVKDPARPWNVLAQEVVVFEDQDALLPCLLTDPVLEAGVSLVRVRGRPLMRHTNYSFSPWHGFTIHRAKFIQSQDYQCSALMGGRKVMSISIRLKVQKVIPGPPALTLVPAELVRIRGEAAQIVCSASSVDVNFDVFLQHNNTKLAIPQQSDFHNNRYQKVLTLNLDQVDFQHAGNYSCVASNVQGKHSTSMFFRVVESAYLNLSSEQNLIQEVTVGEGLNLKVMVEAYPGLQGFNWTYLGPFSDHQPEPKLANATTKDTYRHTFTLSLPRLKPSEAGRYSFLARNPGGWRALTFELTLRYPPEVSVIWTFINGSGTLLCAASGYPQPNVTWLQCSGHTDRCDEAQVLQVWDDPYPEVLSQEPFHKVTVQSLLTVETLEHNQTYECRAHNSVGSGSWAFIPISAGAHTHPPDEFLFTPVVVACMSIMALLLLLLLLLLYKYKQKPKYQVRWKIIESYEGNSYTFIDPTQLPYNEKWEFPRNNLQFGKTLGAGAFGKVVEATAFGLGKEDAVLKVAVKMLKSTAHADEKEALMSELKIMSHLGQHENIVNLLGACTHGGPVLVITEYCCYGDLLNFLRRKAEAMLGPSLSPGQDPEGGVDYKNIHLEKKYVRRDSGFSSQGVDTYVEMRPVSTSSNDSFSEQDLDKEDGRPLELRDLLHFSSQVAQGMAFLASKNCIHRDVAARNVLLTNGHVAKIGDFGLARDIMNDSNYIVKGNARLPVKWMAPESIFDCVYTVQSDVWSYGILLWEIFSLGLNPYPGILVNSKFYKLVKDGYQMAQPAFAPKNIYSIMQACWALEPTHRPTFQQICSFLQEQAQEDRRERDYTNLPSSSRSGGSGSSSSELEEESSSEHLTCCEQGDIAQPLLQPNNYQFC
Chain of Tyrosine-protein kinase Lyn (Homo sapiens) (P07948 2-512 limits assumed): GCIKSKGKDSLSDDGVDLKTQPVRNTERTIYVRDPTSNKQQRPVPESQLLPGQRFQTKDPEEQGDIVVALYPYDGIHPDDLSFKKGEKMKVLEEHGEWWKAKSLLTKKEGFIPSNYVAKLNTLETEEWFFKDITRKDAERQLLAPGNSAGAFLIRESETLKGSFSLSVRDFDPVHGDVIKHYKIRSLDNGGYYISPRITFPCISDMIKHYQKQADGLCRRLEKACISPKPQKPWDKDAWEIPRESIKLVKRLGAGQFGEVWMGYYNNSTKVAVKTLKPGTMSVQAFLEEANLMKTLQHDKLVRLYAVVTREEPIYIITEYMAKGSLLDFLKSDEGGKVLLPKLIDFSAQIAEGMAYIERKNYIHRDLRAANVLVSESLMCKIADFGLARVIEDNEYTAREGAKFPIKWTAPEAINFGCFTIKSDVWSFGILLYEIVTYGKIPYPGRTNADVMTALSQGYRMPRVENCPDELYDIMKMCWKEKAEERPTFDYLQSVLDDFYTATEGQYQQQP

On to `Nc1nc2[nH]c(CN3CCN(c4cc(Cl)cc(Cl)c4)CC3)c(CN3CCN(c4cc(Cl)cc(Cl)c4)CC3)c2c(=O)[nH]1`, for which the values for the growth at 100 µM with OVCAR-5 [1] and with ACHN [8] were -35% and -26%, respectively. Also, the growth at 0.01 µM is 94% in the series with ACHN [2]; 94% with SK-MEL-28 [6]; 109% with SK-MEL-2 [7]; 89% in the series with SF-539 [12]; 87% in the series on OVCAR-5 [15]. Moreover, the figures for the growth at 0.1 µM with SK-MEL-28 [3], in the series with ACHN [10] and in the series with SF-539 [16] were 98%, 98% and 94%, respectively. In addition, the growth at 1 µM came to 98% in the series on ACHN [4]; 91% with SK-MEL-28 [11]; 89% with OVCAR-5 [13]; 114% in the series with SK-MEL-2 [14]; 93% in the series with SF-539 [17]. Further, in the series on OVCAR-5 [5], the growth at 10 µM stood at 92.2%. Also, the GI50 in the series on ACHN [9] was 1940 nM. Further, the TGI in the series with ACHN [9] was determined as 3.9 µM.
Turning to `CCCCCCCC(=O)Nc1nc2[nH]c(CN3CCN(Cc4cccc(F)c4)CC3)c(CN3CCN(Cc4cccc(F)c4)CC3)c2c(=O)[nH]1`, the GI50 in the series on HL-60(TB) [18] was found to be 1740 nM; in the series with A498 (A498) it was 1250 nM. Besides, the TGI in the series on HL-60(TB) [18] worked out at 3.75 µM; in the series on A498 (A498), 2530 nM. Further, the growth at 1 µM in the series on HL-60(TB) [19] is 96%. In the series on A498 (A498, 48 h, read-out: LC50 (the source's name)), the CC50 was found to be 5.1 µM. Further, the Cmax in series [20] is 10 ng/mL. In addition, the inhibition in [21] was 70.3%; in series [27], 45.5%; in series [31], 70.3%; in series [32], 70.3%. In the series with HL-60(TB) [22], the growth at 0.1 µM turned out to be 99%. Moreover, in the series with HL-60(TB) [23], the growth at 0.01 µM is 98%. For the same compound, the AUC(0-t) at 24 h in series [24] was 317 ng·h/mL; in [28] it was 56.7 ng·h/mL. Further, in [25], the time to peak (Tmax) is 2.25 h. For the same compound, the clearance in [26] came to 342 mL/min/kg. In [29], the AUC(0-inf) was 61.7 ng·h/mL. The same compound displayed a bioavailability in [30] of 12.3%.
